SMILES strings stand for the structures.

25 compounds from patent publication US20230295152A1 (SENDA BIOSCIENCES, INC., priority 2019, published 2023) can be followed below.

The nature of the data set: Hepatocyte Stability Assay, human. Type of data set: in vitro ADME. As to conditions: cryopreserved hepatocytes in suspension; human hepatocytes; read-out: Human hepatocyte clearance. As to the method:
• Preparation of working solutions: 10 mM stock solutions of test compound and positive control were prepared in DMSO. In separate conical tubes, the 10 mM solution of test compound and the positive control were diluted to 100 μM by combining 198 μL of 50% acetonitrile/50% water and 2 μL of 10 mM stock.
Preparation of Hepatocytes: Incubation medium (William's E Medium supplemented with GlutaMAX) and hepatocyte thawing medium were placed in a 37° C. water bath and allowed warming for at least 15 minutes prior to use. A vial of cryopreserved hepatocytes was transferred from storage, ensuring that vials remained at cryogenic temperatures until thawing process ensued. Cells were thawed by placing the vial in a 37° C. water bath and gently shaking the vials for 2 minutes. After thawing was completed, vial was sprayed with 70% ethanol and transferred to a biosafety cabinet. Wide-bore pipette tip were used to transfer hepatocytes into 50 mL conical tube containing thawing medium. The 50 mL conical tube were placed into a centrifuge and spun at 100 g for 10 minutes. Upon completion of spin, thawing medium was aspirated and resuspended hepatocytes in enough incubation medium to yield ˜1.5×10^6 cells/mL. Using an AO/PI Staining, cells were counted and the viable cell density was determined. Cells with poor viability (<75% viability) were determined to be not acceptable for use. Cells were diluted with incubation medium to a working cell density of 0.5×10^6 viable cells/mL.
Procedure for Stability Determination: 198 μL of hepatocytes were pipetted into each wells of a 96-well non-coated plate. The plate was placed in the incubator to allow the hepatocytes to warm for 10 minutes. 2 μL of the 100 μM test compound or positive control solutions were pipetted into respective wells of the 96-well non-coated plate to start the reaction. The plate was returned to the incubator for the designed time points. Well contents was transferred in 25 μL aliquots at time points of 0, 15, 30, 60, 90 and 120 minutes. The aliquots were then mixed with 6 volumes (150 μL) of acetonitrile containing internal standard, IS (100 nM alprazolam, 200 nM caffeine and 100 nM tolbutamide) to terminate the reaction. The mixture was vortex for 5 minutes. Samples were centrifuged for 45 minutes at 3,220 g. An aliquot of 100 μL of the supernatant was diluted by 100 μL ultra-pure water, and the mixture was used for LC/MS/MS analysis. All incubations were performed in duplicate.
Data Analysis: All calculations were carried out using Microsoft Excel. Peak areas were determined from extracted ion chromatograms. In vitro half-life (t1/2) of parent compound was determined by regression analysis of the percent parent disappearance vs. time curve.
The in vitro half-life (in vitro t1/2) was determined from the slope value:
Conversion of the in vitro t1/2 (in min) into the in vitro intrinsic clearance (in vitro CLint, in μL/min/1×10^6 cells) was done using the following equation (mean of duplicate determinations):
V=incubation volume(0.2 mL);
N=number of hepatocytes per well(0.1×10^6 cells).
“+++” indicates a CLint value less than 20 mL/min/Kg, “++” indicates a CLint between 20 and 50 mL/min/Kg, and “+” indicates an CLint above 50 mL/min/Kg.
As to `O=c1c2cc(-c3ccc(C(F)(F)F)cn3)nc(-c3cccnc3)c2ncn1C[C@H](O)C(F)(F)F` [Compound 104, (S)-8-(pyridin-3-yl)-3-(3,3,3-trifluoro-2-hydroxypropyl)-6-(5-(trifluoromethyl)pyridin-2-yl)pyrido[3,4-d]pyrimidin-4(3H)-one], the CLint scaled at 1 μM is less than 20 mL/min/kg.

For `O=c1c2cc(-c3ccc(C(F)(F)F)cn3)nc(-c3cccnc3)c2ncn1C[C@@H](O)C(F)(F)F` [Compound 154, (R)-8-(pyridin-3-yl)-3-(3,3,3-trifluoro-2-hydroxypropyl)-6-(5-(trifluoromethyl)pyridin-2-yl)pyrido[3,4-d]pyrimidin-4(3H)-one], the CLint scaled at 1 μM was less than 20 mL/min/kg.

Regarding `C[C@@H](CO)n1cnc2c(-c3cccnc3)nc(-c3ccc(OC(F)(F)F)nc3)cc2c1=O` [Compound 50], the CLint scaled at 1 μM is 20 to 50 mL/min/kg.

As to `Cn1cc(-c2nc(-c3ccc(C(F)(F)F)nc3)cc3c(=O)n([C@H]4COC[C@@H]4O)cnc23)cn1` [Compound 114, 3-((3S,4R)-4-hydroxytetrahydrofuran-3-yl)-8-(1-methyl-1H-pyrazol-4-yl)-6-(6-(trifluoromethyl)pyridin-3-yl)pyrido[3,4-d]pyrimidin-4(3H)-one], the CLint scaled at 1 μM was less than 20 mL/min/kg.

With `Cn1cc(-c2nc(-c3ccc(C(F)(F)F)cn3)cc3c(=O)n([C@H]4COC[C@H]4O)cnc23)cn1` [Compound 151, 3-((3S,4S)-4-hydroxytetrahydrofuran-3-yl)-8-(1-methyl-1H-pyrazol-4-yl)-6-(5-(trifluoromethyl)pyridin-2-yl)pyrido[3,4-d]pyrimidin-4(3H)-one], the CLint scaled at 1 μM is less than 20 mL/min/kg.

`C[C@@H](CO)n1cnc2c(-c3cccnc3)nc(-c3cnc(C(F)(F)F)s3)cc2c1=O` [Compound 85]: the CLint scaled at 1 μM was less than 20 mL/min/kg.

Consider `CC(C)(O)Cn1cnc2c(-n3ccnc3)nc(-c3ccc(C(F)(F)F)cn3)cc2c1=O` [Compound 160, 3-(2-hydroxy-2-methylpropyl)-8-(1H-imidazol-1-yl)-6-(5-(trifluoromethyl)pyridin-2-yl)pyrido[3,4-d]pyrimidin-4(3H)-one], for which the CLint scaled at 1 μM was less than 20 mL/min/kg.

As for `C[C@H](O)Cn1cnc2c(-c3cnn(C)c3)nc(-c3ccc(C(F)(F)F)nc3)cc2c1=O` [Compound 109, (S)-3-(2-hydroxypropyl)-8-(1-methyl-1H-pyrazol-4-yl)-6-(6-(trifluoromethyl)pyridin-3-yl)pyrido[3,4-d]pyrimidin-4(3H)-one], the CLint scaled at 1 μM is less than 20 mL/min/kg.

`C[C@@H](CO)n1cnc2c(-c3cccnc3)nc(-c3cnc(C(F)(F)F)nc3)cc2c1=O` [Compound 86]: the CLint scaled at 1 μM is less than 20 mL/min/kg.

Regarding `Cn1cc(-c2nc(-c3ccc(Cl)cc3)cc3c(=O)n([C@H]4COC[C@@H]4O)cnc23)cn1` [Compound 116], the CLint scaled at 1 μM was less than 20 mL/min/kg.

Turning to `O=c1c2cc(-c3ccc(C(F)(F)F)cn3)nc(-c3cccnc3)c2ncn1[C@H]1COC[C@H]1O` [Compound 145, 3-((3S,4S)-4-hydroxytetrahydrofuran-3-yl)-8-(pyridin-3-yl)-6-(5-(trifluoromethyl)pyridin-2-yl)pyrido[3,4-d]pyrimidin-4(3H)-one], the CLint scaled at 1 μM was less than 20 mL/min/kg.

Turning to `O=c1c2cc(-c3ccc(OC(F)(F)F)cc3)nc(-c3cccnc3)c2ncn1C[C@H](O)C(F)(F)F` [Compound 124, (S)-8-(pyridin-3-yl)-3-(3,3,3-trifluoro-2-hydroxypropyl)-6-(4-(trifluoromethoxy)phenyl)pyrido[3,4-d]pyrimidin-4(3H)-one], the CLint scaled at 1 μM is less than 20 mL/min/kg.

On to `C[C@@H](CO)n1cnc2c(-n3ccnc3)nc(-c3ccc(C(F)(F)F)cn3)cc2c1=O` [Compound 162, (S)-3-(1-hydroxypropan-2-yl)-8-(1H-imidazol-1-yl)-6-(5-(trifluoromethyl)pyridin-2-yl)pyrido[3,4-d]pyrimidin-4(3H)-one], for which the CLint scaled at 1 μM was less than 20 mL/min/kg.

As to `Cn1cc(-c2nc(-c3ccc(C(F)(F)F)nc3)cc3c(=O)n(C[C@H](O)C(F)(F)F)cnc23)cn1` [Compound 111, (S)-8-(1-methyl-1H-pyrazol-4-yl)-3-(3,3,3-trifluoro-2-hydroxypropyl)-6-(6-(trifluoromethyl)pyridin-3-y1)pyrido[3,4-d]pyrimidin-4(3H)-one], the CLint scaled at 1 μM was less than 20 mL/min/kg.

`C[C@@H](CO)n1cnc2c(N3CCCCC3)nc(-c3ccc(Cl)cc3)cc2c1=O` [Compound 177, (S)-6-(4-chlorophenyl)-3-(1-hydroxypropan-2-yl)-8-(piperidin-1-yl)pyrido[3,4-d]pyrimidin-4(3H)-one]: the CLint scaled at 1 μM was in the range of 20 to 50 mL/min/kg.

As for `Cn1cc(-c2nc(-c3ccc(C(F)(F)F)nc3)cc3c(=O)n([C@H]4COC[C@H]4O)cnc23)cn1` [Compound 88], the CLint scaled at 1 μM is less than 20 mL/min/kg.

With `C[C@@H](CO)n1cnc2c(-c3cnsc3)nc(-c3ccc(C(F)(F)F)nc3)cc2c1=O` [Compound 55], the CLint scaled at 1 μM was in the range of 20 to 50 mL/min/kg.

With `O=c1c2cc(-c3ccc(C(F)(F)F)cn3)nc(-c3cccnc3)c2ncn1[C@H]1COC[C@@H]1O` [Compound 139, 3-((3S,4R)-4-hydroxytetrahydrofuran-3-yl)-8-(pyridin-3-yl)-6-(5-(trifluoromethyl)pyridin-2-yl)pyrido[3,4-d]pyrimidin-4(3H)-one], the CLint scaled at 1 μM is less than 20 mL/min/kg.

For the compound `Cn1cc(-c2nc(-c3ccc(C4CC4)nc3)cc3c(=O)n(C[C@H](O)C(F)(F)F)cnc23)cn1` [Compound 136, (S)-6-(6-cyclopropylpyridin-3-yl)-8-(1-methyl-1H-pyrazol-4-yl)-3-(3,3,3-trifluoro-2-hydroxypropyl)pyrido[3,4-d]pyrimidin-4(3H)-one], the CLint scaled at 1 μM is less than 20 mL/min/kg.

With `O=c1c2cc(-c3ccc(C(F)(F)F)nc3)nc(-c3cccnc3)c2ncn1C[C@@H](O)C(F)(F)F` [Compound 122, (R)-8-(pyridin-3-yl)-3-(3,3,3-trifluoro-2-hydroxypropyl)-6-(6-(trifluoromethyl)pyridin-3-yl)pyrido[3,4-d]pyrimidin-4(3H)-one], the CLint scaled at 1 μM was less than 20 mL/min/kg.

Regarding `O=c1c2cc(-c3ccc(Cl)cc3)nc(-c3cccnc3)c2ncn1[C@@H]1COC[C@@H]1O` (stereo in doubt) [Compound 71], the CLint scaled at 1 μM is less than 20 mL/min/kg.

Consider `C[C@@H](CO)n1cnc2c(-c3cnn(C)c3)nc(-c3ccc(OC(F)(F)F)cc3)cc2c1=O` [Compound 25], for which the CLint scaled at 1 μM was less than 20 mL/min/kg.

As to `C[C@H](O)Cn1cnc2c(-c3cnn(C)c3)nc(-c3ccc(C(F)(F)F)cn3)cc2c1=O` [Compound 142, (S)-3-(2-hydroxypropyl)-8-(1-methyl-1H-pyrazol-4-yl)-6-(5-(trifluoromethyl)pyridin-2-yl)pyrido[3,4-d]pyrimidin-4(3H)-one], the CLint scaled at 1 μM was less than 20 mL/min/kg.

With `O=c1c2cc(-c3ccc(Cl)cc3)nc(-c3cccnc3)c2ncn1[C@@H]1COC[C@H]1O` [Compound 152, 6-(4-chlorophenyl)-3-((3R,4S)-4-hydroxytetrahydrofuran-3-yl)-8-(pyridin-3-yl)pyrido[3,4-d]pyrimidin-4(3H)-one], the CLint scaled at 1 μM fell in the range of 20 to 50 mL/min/kg.

For the compound `Cn1cc(-c2nc(-c3ccc(C(F)(F)F)nc3)cc3c(=O)n(C[C@@H](O)C(F)(F)F)cnc23)cn1` [Compound 110, (R)-8-(1-methyl-1H-pyrazol-4-yl)-3-(3,3,3-trifluoro-2-hydroxypropyl)-6-(6-(trifluoromethyl)pyridin-3-yl)pyrido[3,4-d]pyrimidin-4(3H)-one], the CLint scaled at 1 μM was less than 20 mL/min/kg.
